According to publication PMC5384759 (ACS Chemical Neuroscience, 2016):
Like-named read-outs stand apart in the source and are kept apart here.

Assays:
[1] = patients, racemic CIT; cited from earlier work
[2] = Ex vivo transplacental transfer of CIT and DCIT; type: in vitro ADME, mice
[3] = cited from earlier work
[4] = type: in vivo, CD-1 mice
SERT = details: read-out: inhibitory constant (Ki) of SERT-mediated 5-HT uptake; cited from earlier work
[5] = CIT metabolism in placental microsomal preparations; type: in vitro ADME, mice; details: E14 and E18, 500 ng/mL CIT, 2 h
[6] = type: in vivo, CD-1 mice; details: for half-life / AUC: female, CD-1, mouse, ip; for AUC: area under the concentration-time curve
[7] = CIT metabolism in fetal liver microsomal preparations; type: in vitro ADME, mice; details: 2 h incubation
[8] = nonpregnant mice, fixed dose 0.6 mg CIT ip, serum
[9] = pregnant mice GD14, weight-adjusted dose 20 mg/kg CIT ip, maternal serum
[10] = pregnant mice GD18, weight-adjusted dose 20 mg/kg CIT ip, maternal serum
[11] = pregnant mice GD18FD, fixed dose 0.6 mg CIT ip, maternal serum

In the case of `CNCCCC1(c2ccc(F)cc2)OCc2cc(C#N)ccc21` (stereo not drawn) [DCIT, desmethylcitalopram], the “mean plasma S/R enantiomer ratio” value [1] is given as 0.7, the “DCIT in fetal eluate during placental perfusion with CIT (placental metabolism)” value ([2]; E18 placenta perfused with 500 ng/mL CIT, 10 min intervals over 120 min) is given as “not detected” and the “transplacental transfer efficiency of DCIT relative to CIT (fold less efficient)” value ([2]; ex vivo perfusion, E18 placentas) is given as about 2 fold. The partition coefficient [3] was 0.28, the “time to peak DCIT concentration in fetal serum” value ([4]; E14, after maternal 20 mg/kg CIT ip) was 1 h and the “time to peak DCIT concentration in fetal serum” value ([4]; E18, after maternal 20 mg/kg CIT ip) was 2.5 h. For the same compound, the Ki (SERT) was 14 nM.

With `CN(C)CCCC1(c2ccc(F)cc2)OCc2cc(C#N)ccc21` (racemic) [CIT, (±)-citalopram] the “CIT to DCIT metabolic capacity of placental microsomes” value [5] was “no significant CIT to DCIT metabolic capacity”, the “increase in AUC in the GD18 group over the GD18FD dams” value ([6]; 20 mg/kg vs fixed 0.6 mg CIT ip, dose increased by 100%) was 141% and the half-life ([6]; maternal serum, 0.6 mg) was 0.93 ± 0.06 h. The AUC ([6]; maternal serum, 0.6 mg, pregnant mice GD18FD, fixed dose 0.6 mg CIT ip) was 927 ± 28 ng·h/mL, the half-life ([6]; maternal serum, 20 mg/kg) was 1.08 ± 0.07 h and the half-life ([6]; serum, 0.6 mg) was 1.06 ± 0.04 h. For the same compound, the AUC ([6]; serum, 0.6 mg, nonpregnant mice, fixed dose 0.6 mg CIT ip) was 1230 ± 39 ng·h/mL, the half-life ([6]; serum, 20 mg/kg) was 1.05 ± 0.03 h and the “reduction in the AUC of serum CIT in GD18FD dams compared to nonpregnant mice” value ([6]; fixed dose 0.6 mg CIT ip) was 25%. For the same compound, the CIT absorption phase ([6]; nonpregnant mice, fixed dose 0.6 mg CIT ip) was 1.67, the “C0, peak concentration” value [6, 8] was 2050 ± 36 ng/mL and the “CL, clearance” value [6, 8] was 486 ± 9 mL·h. The “VD, volume of distribution” value [6, 8] was 29.3 ± 2.3 mL, the “AUCdn, dose-normalized AUC” value [6, 9] was 1.45 ± 0.10 (ng × h/mL)μg and the “C0, peak concentration” value [6, 9] was 2278 ± 31 ng/mL. The “CL, clearance” value [6, 9] was 689 ± 15 mL·h, the “VD, volume of distribution” value [6, 9] was 41.7 ± 2.5 mL and the “AUCdn, dose-normalized AUC” value [6, 10] was 1.86 ± 0.20 (ng × h/mL)μg. The “C0, peak concentration” value [6, 10] was 2353 ± 33 ng/mL, the “VD, volume of distribution” value [6, 10] was 50.9 ± 2.0 mL and the CIT absorption phase ([6]; pregnant mice GD18FD, fixed dose 0.6 mg CIT ip) was 1.76. The “AUCdn, dose-normalized AUC” value [6, 11] was 1.48 ± 0.21 (ng × h/mL)μg, the “C0, peak concentration” value [6, 11] was 1667 ± 38 ng/mL and the “CL, clearance” value [6, 11] was 647 ± 20 mL·h. The “VD, volume of distribution” value [6, 11] was 36.0 ± 2.6 mL, the “increase in VD as gestation advanced from GD14 to GD18” value ([6]; weight-adjusted dose 20 mg/kg CIT ip) was 22% and the “time of peak fetal serum CIT concentration following maternal drug injection” value ([4]; E14 and E18 fetuses, maternal 20 mg/kg CIT ip) was 15 min. For the same compound, the “DCIT generation from fetal liver microsomes” value ([7]; E14, 500 ng/mL CIT) was “no measurable DCIT generation” and the “DCIT generation from fetal liver microsomes” value ([7]; E18, 500 ng/mL CIT) was “significant rate of CIT to DCIT conversion”.
